Assay results taken from US20190255073A1, “ESTERS OF 3-POLYAMINE DERIVATIVES OF BILE ACIDS FOR THE TREATMENT OF INFECTIONS” (VIRBAC, priority 2016, published 2019).
Converted amounts (≈) assume the structure as drawn. Like-named read-outs stand apart in the source and are kept apart here.

Legend:
S. aureus ATCC25923 = assay: MIC determination by microplate dilution, S. aureus human strain; assay type: cell-based, Staphylococcus aureus; settings: Staphylococcus aureus, ATCC25923, Gram-positive, Mueller-Hinton medium, 24 h, 37° C.
Outline: (§1)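 Two-fold serial broth microdilution in Mueller-Hinton medium, inoculum adjusted to OD 0.01 per well from a 24 h, 37 °C preculture. Compounds were dissolved in DMSO/methanol (50/50) at 5 mg/mL stock. Plates were incubated 24 h at 37 °C under humid atmosphere, then read at 620 nm to derive the MIC; duplicates.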

S. aureus (340) = assay: MIC determination by microplate dilution, S. aureus animal strain; assay type: cell-based, Staphylococcus aureus; settings: Staphylococcus aureus, Gram-positive, Mueller-Hinton medium, 24 h, 37° C.
Outline: as §1

S. intermedius (1051997) = assay: MIC determination by microplate dilution, S. intermedius animal strain; assay type: cell-based, Staphylococcus intermedius; settings: Staphylococcus intermedius, Gram-positive, Mueller-Hinton medium, 24 h, 37° C.
Outline: as §1

E. faecalis ATCC29212 = assay: MIC determination by microplate dilution, E. faecalis human strain; assay type: cell-based, Enterococcus faecalis; settings: Enterococcus faecalis, ATCC29212, Gram-positive, Mueller-Hinton medium, 24 h, 37° C.
Outline: as §1

E. coli ATCC28922 = assay: MIC determination by microplate dilution, E. coli human strain; assay type: cell-based, Escherichia coli; settings: Escherichia coli, ATCC28922, Gram-negative, Mueller-Hinton medium, 24 h, 37° C.
Outline: as §1

E. coli (1956) = assay: MIC determination by microplate dilution, E. coli animal strain; assay type: cell-based, Escherichia coli; settings: Escherichia coli, Gram-negative, Mueller-Hinton medium, 24 h, 37° C.
Outline: as §1

P. aeruginosa ATCC27853 = assay: MIC determination by microplate dilution, P. aeruginosa human strain; assay type: cell-based, Pseudomonas aeruginosa; settings: Pseudomonas aeruginosa, ATCC27853, Gram-negative, Mueller-Hinton medium, 24 h, 37° C.
Outline: as §1

P. aeruginosa (1051575) [1] = assay: MIC determination by microplate dilution, P. aeruginosa animal strain; assay type: cell-based, Pseudomonas aeruginosa; settings: Pseudomonas aeruginosa, Gram-negative, Mueller-Hinton medium, 24 h, 37° C.
Outline: as §1

CHO-K1 cells = assay: WST1 cytotoxicity test on CHO-K1 cells; assay type: cell-based, Chinese hamster; settings: Cricetulus griseus
Outline: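 CHO-K1 cells seeded 24 h, then exposed to increasing compound concentrations in duplicate for 24 h at 37 °C, 5% CO2. Viability by WST-1 reduction (20 min, 37 °C), absorbance at 450 nm. IC50 = concentration reducing viability by 50%, from nonlinear regression of dose-response.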

P. aeruginosa (1051575) [2] = assay: Potentiation of the doxycycline activity at 2 μg/mL; assay type: cell-based, Pseudomonas aeruginosa; settings: in combination with doxycycline 2 μg/mL; 24 h, 37°
C. albicans = assay: Antifungal activity, cascade microdilution, C. albicans; assay type: cell-based, Candida albicans; settings: Candida albicans, 24 h, read-out: IC50 (μg/mL) C. albicans
A. niger = assay: Antifungal activity, cascade microdilution, A. niger; assay type: cell-based; settings: Aspergillus niger, 24 h, read-out: IC50 (μg/mL) A. niger
Experimental: 1) Preparation of the Preculture
A negative control (2 mL of sterile Mueller Hinton MH culture medium)
A positive control (1980 μL of culture medium+20 μL of yeast or fungal suspension) from a thawed biological strain (the biological strains are stored at −80° C. in glycerol).
The tubes were incubated at 37° C. for 24 hours at 100 rpm.
The chemical compounds to be tested were prepared at a concentration of 5 mg/mL (in the form of the hydrochloride in water).
2) Preparation of the Microplate for the Determination of the Minimum Inhibitory Concentration (MIC)
The MIC is obtained by using the cascade microdilution method in sterile 96-well plates. 100 μL of MH culture medium are first placed in each well, and 8 μL of the solution (5 mg/mL) of the test molecule are then added to the first wells. The volume is made up with medium to obtain a total volume of 200 μL in these wells. Serial dilution is then performed by taking 100 μL from the first well, and so on successively from well to well. 100 μL of inoculate containing 2-6×10^5 CFU of yeast or fungi are then added to each well. Certain wells are reserved for positive and negative controls.
3) Reading of the Results
After incubation, an optical density (OD) reading was taken in an iEMS plate spectrophotometer at 620 nm. Calculation of the minimum inhibitory concentration (MIC) was performed.

P. aeruginosa (PAO1) = assay: MIC of doxycycline on P. aeruginosa PAO1; assay type: cell-based; settings: Pseudomonas aeruginosa; doxycycline alone; Gram-negative strain P. aeruginosa (PAO1)
Experimental: On the Gram-negative strain of P. aeruginosa (PAO1), doxycycline has an MIC of 40 μg/mL.

COC(=O)CC[C@@H](C)[C@H]1CCC2C3C(CC[C@@]21C)[C@@]1(C)CC[C@H](NCCCN(CCCN)CCCN)CC1C[C@H]3O (stereo partly drawn) [(38), methyl 3β-(tris(3-aminopropyl)amine)chenodeoxycholate]
MIC (S. aureus ATCC25923): 14 µg/mL (≈ 24.3 µM)
MIC (S. aureus (340)): 14 µg/mL (≈ 24.3 µM)
MIC (S. intermedius (1051997)): 29 µg/mL (≈ 50.3 µM)
MIC (E. faecalis ATCC29212): 3.5 µg/mL (≈ 6.07 µM)
MIC (E. coli ATCC28922): 28 µg/mL (≈ 48.5 µM)
MIC (E. coli (1956)): 14 µg/mL (≈ 24.3 µM)
MIC (P. aeruginosa ATCC27853): 28 µg/mL (≈ 48.5 µM)
MIC (P. aeruginosa (1051575) [1]): 14 µg/mL (≈ 24.3 µM)
IC50 (CHO-K1 cells; CHO-K1, 24 h, read-out: IC50 (μg/mL) CHO): 17 µg/mL (≈ 29.5 µM)
IC50 (CHO-K1 cells; CHO-K1, read-out: IC50 (μg/mL) CHO): 17 µg/mL (≈ 29.5 µM)
MIC - P. aeruginosa (1051575): content of compound of formula (I) to restore the doxycycline activity (at 2 μg/mL) (P. aeruginosa (1051575) [2]): 2 µg/mL
IC50 (C. albicans): 115 µg/mL (≈ 199 µM)
IC50 (A. niger): 4 µg/mL (≈ 6.93 µM)

C[C@H]1c2cccc(O)c2C(=O)C2=C(O)[C@]3(O)C(=O)C(C(N)=O)=C(O)[C@@H](N(C)C)[C@@H]3[C@@H](O)[C@@H]21 [doxycycline]
MIC (P. aeruginosa (PAO1)): 40 µg/mL
